Patent publication US4220771A, “2,3-Polymethylene-4-oxo-4H-pyrido[1,2-a]pyrimidines” (Chinoin Gyogyszer es Vegyeszeti Termekek Gyara Rt, priority 1977, dated 1980)
Structures can show the parent of a compound that is named as a salt.

Tests used:
Assay type in all cases: in vivo
mice [1] = experiment: morphine-potentiating activity; settings: i.v., with 5 mg. morphine
Description: (§1) Also the analgesic and morphine-potentiating activities were investigated on mice. The test results obtained in a "hot plate" test (J. Pharm. Exp. Therp. 80 130 (1944) and Kiserl. Orvostudomany 2, 295 (1950) and results obtained in laparotomic test of Knoll (Animal and Clinical Pharmacologic Techniques in Drug Evaluation. Vol. 2. 305-321 (1967), Year Book Publ. Chicago) are shown in Table 1.

[2] = toxicity in mice, 48 hours observation, Litchfield-Wilcoxon graphic method; settings: mouse, in vivo
mice [3] = experiment: analgesic activity, "hot plate" test; settings: for ED50: Mus musculus
Description: as §1

mice [4] = experiment: toxicity in mice, 48 hours observation, Litchfield-Wilcoxon graphic method

Structure (SMILES) | Dose potentiating the activity of 5 mg. morphine, ED50 (mice [1]) | LD50 at 48 h ([2]; iv) | LD50 at 48 h ([2]; sc) | ED50 (mice [3]; sc) | ED50 (mice [3]; iv) | LD50 (mice [4]; i.v.) | LD50 (mice [4]; s.c.) | Hot plate ED50 (mice [3]; i.v.) | Hot plate ED50 (mice [3]; s.c.)
O=c1c2c(nc3ccccn13)CCCCCC2 [2,3-hexamethylene-4-oxo-4H-pyrido(1,2-a)pyrimidine-hydrochloride] | 4.5 mg/kg | 125 mg/kg | 500 mg/kg | 105 mg/kg |  |  |  |  | 
Cc1ccc2nc3c(c(=O)n2c1)CCC3 [2,3-trimethylene-7-methyl-4-oxo-4H-pyrido(1,2-a)pyrimidine-hydrochloride] | 1.0 mg/kg | 120 mg/kg |  |  | 47 mg/kg |  |  |  | 
Cc1ccn2c(=O)c3c(nc2c1)CCC3 [2,3-trimethylene-8-methyl-4-oxo-4H-pyrido(1,2-a)pyrimidine-hydrochloride] | 4.8 mg/kg | 120 mg/kg |  |  | 65 mg/kg |  |  |  | 
O=c1c2c(nc3ccccn13)CCCCC2 [2,3-pentamethylene-4-oxo-4H-pyrido(1,2-a)pyrimidine-hydrochloride] | 3.7 mg/kg | 210 mg/kg | 630 mg/kg | 66 mg/kg |  |  |  |  | 
Cc1cccc2nc3c(c(=O)n12)CCCC3 [2,3-tetramethylene-6-methyl-4-oxo-4H-pyrido(1,2-a)pyrimidine-hydrochloride] | 7.8 mg/kg | 160 mg/kg |  |  |  |  |  |  | 
Cc1cc(C)n2c(=O)c3c(nc2c1)CCC3 [2,3-trimethylene-6,8-dimethyl-4-oxo-4H-pyrido(1,2-a)pyrimidine-hydrochloride] | 1.0 mg/kg | 120 mg/kg |  |  | 42 mg/kg |  |  |  | 
CCOC(=O)c1c[n+](C)c2n(c1=O)C(C)CCC2.COS(=O)(=O)[O-] (stereo not drawn) [PROBON, reference compound] | 25.0 mg/kg |  |  |  |  | 220 mg/kg | 790 mg/kg | 43 mg/kg | 75 mg/kg
